Assay results from patent US6500813B1, “Ophthalmic composition containing active vitamin D” (priority 1995, dated 2002).
One block for each compound: values may come before it.

Experiments:
laser-irradiated cornea = assay: Test Example 3: corneal turbidity rating after excimer laser (PTK) irradiation in rabbits; type: in vivo, Japan white rabbits; details: 10^−7% solution, 20 μl/dose, 3 times/day over 14 days
Description: In this test, 8 Japan white rabbits each weighing 2 kg were used. A laser beam was focused on the corneal center of the right eye of each animal using an excimer laser oscillator (available from Summit Technology Co. U.S.) under anesthesia. The laser beam irradiation was carried out according to the surface-incision mode (PTK), i.e., at an energy density of 165 mj/cm^2, a rate of incision to a depth of 0.25 μm/pulse, a diameter of the incised circular area of 4.5 mm and an irradiated pulse number of 300.
These 8 test animals which had been irradiated with the laser beam were, at random, divided into two groups each comprising 4 animals, one of which constituted a drug-administered group and the other of which constituted a control group. […]
After 24 hours from the laser irradiation, the drug-administered group and the control-group were treated by dropping, in the right eye, a 10^−7% active vitamin D-containing solution [22-oxa-1β,25-dihydroxy vitamin D3: OCT (available from Chugai Pharmaceutical Co., Ltd.)] and the OCT solvent base, respectively, at 20 μl/dose and 3 times/day over 14 days. After 7 and 15 days from the irradiation, the extent of the turbidity of each cornea was evaluated on the basis of the findings for the 8 animals observed under a slit lamp microscope. […]

[1] = system: laser-irradiated cornea (corneal epithelial cells); assay: Test Example 1: excimer laser (PTK) corneal incision in rabbits, slit lamp and light microscope observation; type: in vivo, Japan white rabbits
Description: In this test, 6 Japan white rabbits each weighing 2 kg were used. After anesthetizing each animal by intramuscularly injecting an analgesic-anesthetic at the femoral regions thereof and by simultaneously dropping local anesthetic in the eyes, a laser beam was focused on the corneal center of the right eye using an excimer laser oscillator (available from Summit Technology Co. U.S.). The laser beam irradiation was carried out according to the surface-incision mode (PTK), i.e., at an energy density of 165 mj/cm^2, a rate of incision to a depth of 0.25 μm/pulse, an incised surface diameter of 4.5 mm and a pulse number of 300.
After the laser beam irradiation, an eye drop and an ointment containing an antibiotic agent were administered to the eye. Three (Group A) out of these six animals were treated by dropping, in the right eye, an active vitamin D-containing solution (1 α-monohydroxy vitamin D: 0.01 μg/drop or 0.5 μg/ml; an alpha calcidol solution) in a rate of one drop (0.02 ml)/dose/day, starting from 24 hours after the laser beam irradiation. On the other hand, the remaining three (Group B) out of these six animals constituted a control group and were treated in the same manner by dropping, in the right eye, an ophthalmic buffer solution BSS at a rate of one drop/dose/day.
After 4, 7 and 12 days from the laser beam irradiation, the right eyes of animals in Group A and Group B (one animal each) were observed under a slit lamp microscope, followed by slaughtering one animal in each Group and then enucleation of the eyeballs. The cornea was removed from the sclerocornea of each eyeball, followed by fixing through immersion in a Carnoa's solution for 4 hours, dehydration in dry ethanol, paraffin-embedded to form a corneal slice with a thickness of 4 μm, removing paraffin by xylol, carrying out the hematoxylin-eosin staining and/or PAS staining and observation of the corneal slice under a light microscope.

[2] = system: lens capsule, aqueous humor and intraocular lens; assay: Test Example 2: lens removal by ultrasonic emulsification and aspiration with intraocular lens transplantation in rabbits, slit lamp observation of turbidity; type: in vivo, Japan white house rabbits; details: for fibrin deposition in the anterior chamber: versus sesame oil control (animal C)
Excerpt: In this test, three Japan white house rabbits each weighing 2 kg were used. After anesthetizing each animal by intramuscularly injecting an analgesic-anesthetic at the femoral regions thereof and by simultaneously dropping a local anesthetic in the eyes, the sclerocornea of each animal was dissected over a length of 3.5 mm, followed by excising a circular piece of the arterior capsule at a diameter of about 5 mm from the lens capsule under perfusion of the ophthalmic buffer solution BSS, removal of the lens nuclei and the cortex by the ultrasonic emulsification and aspiration technique, swelling the lens capsule by injecting a viscoelastic substance, then widening the incised port of the sclerocornea to about 7 mm and transplantation, into the lens capsule, of a poly(methyl methacrylate) intraocular lens provided with an optical part having a diameter of 6 mm. After the removal of the viscoelastic substance under vacuum suction, the incised wound of the sclerocornea was sutured with three stitches using a 9-0 nylon suture to thus complete the operation. After the completion of the operation, an eye drop and an ointment containing an antibiotic agent were administered to the conjunctiva. The right eyes of these three animals were subjected to the ultrasonic emulsification and aspiration technique and the transplantation of an intraocular lens.
One (A) out of these three animals was treated with a calcitriol solution in a rate of 1 to 2 drops/dose/day. The calcitriol solution used was prepared by dissolving and diluting calcitriol (1α,25-dihydroxy vitamin D) in ethanol and then further diluting (1:100) the resulting dilute solution, to a calcitriol concentration of 0.5 μg/ml, with an ophthalmic oil base consisting of purified sesame oil. One (B) out of the three animals was treated by orally administering the calcitriol solution in a rate of 1 ml/dose/day using a dropping pipette. The remaining one (C) out of the three animals was treated by dropping ophthalmic purified sesame oil free of any calcitriol in the right eye in a rate of 1 to 2 drops/dose/day. After the mydriasis at 1, 4, 7, 14 and 28 days from the operation, the lens capsule, aqueous humor and intraocular lens for each animal were inspected for the turbidity through the observation under a slit lamp microscope.

[3] = animal A, eye drop, after 7 days from the operation

SMILES: C=C1/C(=C\C=C2/CCC[C@]3(C)[C@@H]([C@H](C)OCCC(C)(C)O)CC[C@@H]23)C[C@@H](O)C[C@@H]1O [OCT, 22-oxa-1β,25-dihydroxy vitamin D3]
- degree of turbidity relative to that observed for the control group (laser-irradiated cornea): about ½
- degree of corneal turbidity, rating 0 (no turbidity) to 4 (complete opacification), average of four animals (laser-irradiated cornea; right eye, evaluated after 7 and 15 days, control group 3.5): 2.0

SMILES: C=C1/C(=C\C=C2/CCC[C@]3(C)[C@@H]([C@H](C)CCCC(C)C)CC[C@@H]23)C[C@@H](O)C[C@@H]1O [alpha calcidol, 1α-monohydroxy vitamin D]
- opacity of the laser-irradiated site under the slit lamp microscope ([1]; Group A, right eye, eye drop 0.01 μg/drop (0.5 μg/ml), one drop/dose/day from 24 hours after irradiation, observed after 4, 7 and 12 days, versus BSS control (Group B)): quite slight opacity at the peripheral edge of the laser-irradiated site
- piling up growth of the corneal epithelial cells, sliced cornea under a light microscope ([1]; Group A, right eye, eye drop 0.01 μg/drop, one drop/dose/day, control Group B ran up to 10 layers): not observed such tendency as piling up growth
- side effect (bleeding, fibrin-deposition, corneal haze/opacity, intraocular inflammation) ([1]; Test Example 1, eye drop): not observed any side effect

- posterior synechia ([2]; animal A, eye drop): did not cause any posterior synechia
- posterior synechia ([2]; animal B, oral): did not cause any posterior synechia
SMILES: C=C1/C(=C\C=C2/CCC[C@]3(C)[C@@H]([C@H](C)CCCC(C)(C)O)CC[C@@H]23)C[C@@H](O)C[C@@H]1O [calcitriol, 1α,25-dihydroxy vitamin D]
- side effect (bleeding, fibrin-deposition, corneal haze/opacity, intraocular inflammation) ([2]; Test Example 2, eye drop or oral): not observed any side effect
- transparency, eye drop (animal A) compared with oral (animal B) ([2]; after 28 days from the operation): better than that observed for the animal B
- fibrin deposition in the anterior chamber ([2]; animal A, eye drop 0.5 μg/ml in sesame oil, 1 to 2 drops/dose/day): very low as compared with that observed for the animal C
- transparency of the anterior capsule [2, 3]: maintained desired transparency
- wrinkling and opacity of the anterior capsule [2, 3]: only slight wrinkling of the anterior capsule and opacity of the periphery thereof
- opacity and wrinkling of the anterior capsule ([2]; animal A, eye drop, after 28 days from the operation): slight opacity and wrinkling of the anterior capsule
- fibrin deposition in the anterior chamber ([2]; animal B, oral 1 ml/dose/day of 0.5 μg/ml solution): very low as compared with that observed for the animal C
- opacity and wrinkling of the anterior capsule ([2]; animal B, oral, after 28 days from the operation): slight opacity and wrinkling of the anterior capsule
